From the supplement of paper PMC7017272
± gives the standard deviation of the averaged measurements.

What was measured:
Settings in all cases: treatment time: 3 days
[1] = test system: UT-SCC-24A; assay: drug sensitivity score (DSS); higher = more sensitive
Experimental: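 HNSCC cell lines (500 cells/well, 384-well) were cultured on plastic, on top of (2D) or embedded (3D) in Matrigel or human leiomyoma matrix Myogel (500 ug/mL; Myogel 3D mixed with rat collagen I). Cells were treated for 3 days with 5 ten-fold concentrations of each drug, and viability was read by CellTiter-Glo. Suffixes _1/_2/_3 on drug names are replicates.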

[2] = test system: UT-SCC-40; assay: relative IC50 (midpoint of the fitted curve; maximal inhibition may be below 50%); higher = less potent
Procedure, shortened: (§1)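 Viability of HPV-negative HNSCC cell lines was measured by CellTiter-Glo 2.0 luminescence. Cells were seeded at 500 cells/well in 384-well plates on plastic, on Matrigel- or Myogel-coated wells (500 µg/mL), or embedded in Matrigel or Myogel plus rat collagen I, then given compounds at five 10-fold concentrations for 3 days, with signals normalised to vehicle (0.1% DMSO) and cell-killing control wells. Fitting of percent-inhibition dose–response curves in the FIMM pipeline yielded IC50, maximal inhibition and drug sensitivity score.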

[3] = test system: UT-SCC-81; assay: as above
Procedure, shortened: as §1

[4] = test system: UT-SCC-24B; assay: as above
Procedure, shortened: as §1

[5] = test system: UT-SCC-28; assay: as above
Procedure, shortened: as §1

[6] = test system: UT-SCC-44; assay: maximal % inhibition of viability relative to DMSO; higher = stronger effect
Experimental: (§2)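 HNSCC cell lines (500 cells/well, 384-well) were cultured on plastic, on top of (2D) or embedded (3D) in Matrigel or human leiomyoma matrix Myogel (500 ug/mL; Myogel 3D mixed with rat collagen I). Cells were treated for 3 days with 5 ten-fold concentrations of each drug, and viability was read by CellTiter-Glo. Viability was normalised to DMSO and benzethonium chloride controls and fitted with the FIMM DSRT pipeline to give IC50 (nM), maximal % inhibition and DSS. Suffixes _1/_2/_3 are replicates. Only inhibition-mode (IC50) fits are kept.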

[7] = test system: UT-SCC-8; assay: as above
Experimental: as §2

[8] = test system: UT-SCC-42A; assay: as above
Experimental: as §2

[9] = test system: UT-SCC-40; assay: as above
Experimental: as §2

[10] = test system: UT-SCC-81; assay: as above
Experimental: as §2

[11] = test system: UT-SCC-24B; assay: as above
Experimental: as §2

[12] = test system: UT-SCC-73; assay: as above
Experimental: as §2

[13] = test system: UT-SCC-106A; assay: as above
Experimental: as §2

[14] = test system: UT-SCC-14; assay: as above
Experimental: as §2

[15] = test system: UT-SCC-28; assay: as above
Experimental: as §2

[16] = test system: UT-SCC-42B; assay: as above
Experimental: as §2

[17] = culture condition: embedded in Matrigel
[18] = culture condition: embedded in Myogel + collagen I
[19] = culture condition: on top of Matrigel
[20] = culture condition: on top of Myogel
[21] = culture condition: plastic 2D (no matrix)

Structure (SMILES): CO[C@H]1C[C@@H]2CC[C@@H](C)[C@@](O)(O2)C(=O)C(=O)N2CCCC[C@H]2C(=O)O[C@H]([C@H](C)C[C@@H]2CC[C@@H](O)[C@H](OC)C2)CC(=O)[C@H](C)/C=C(\C)[C@@H](O)[C@@H](OC)C(=O)[C@H](C)C[C@H](C)/C=C/C=C/C=C/1C [Sirolimus]
- drug sensitivity score [1, 17]: 9 ± 4.9 DSS
- drug sensitivity score [1, 18]: 16.4 ± 1.2 DSS
- drug sensitivity score [1, 19]: 12.7 ± 3.7 DSS
- drug sensitivity score [1, 20]: 13.7 ± 1.2 DSS
- drug sensitivity score [1, 21]: 12.9 ± 2.5 DSS
- relative IC50 [2, 21]: > 98.9 nM
- relative IC50 [3, 18]: 2.71 nM
- relative IC50 [3, 19]: 1.95 nM
- relative IC50 [3, 20]: 1.55 nM
- relative IC50 [3, 21]: 1.4 nM
- relative IC50 [4, 17]: 0.965 nM
- relative IC50 [4, 20]: 2.6 nM
- relative IC50 [4, 21]: 2.95 nM
- relative IC50 [5, 17]: 2.04 nM
- relative IC50 [5, 19]: 1.16 nM
- relative IC50 [5, 21]: 1.2 nM
- maximal % inhibition of viability [6, 17]: 48.7 ± 9.5%
- maximal % inhibition of viability [6, 18]: 72.6 ± 1.9%
- maximal % inhibition of viability [6, 19]: 61 ± 2.4%
- maximal % inhibition of viability [6, 20]: 72.5 ± 1.7%
- maximal % inhibition of viability [6, 21]: 72.3 ± 3.1%
- maximal % inhibition of viability [7, 17]: 96.37 ± 0.95%
- maximal % inhibition of viability [7, 18]: 94.2 ± 1.6%
- maximal % inhibition of viability [7, 19]: 95.77 ± 0.31%
- maximal % inhibition of viability [7, 20]: 94.7 ± 0.35%
- maximal % inhibition of viability [7, 21]: 95.07 ± 0.45%
- maximal % inhibition of viability [8, 17]: 66.8 ± 8.8%
- maximal % inhibition of viability [8, 18]: 52.5 ± 2.1%
- maximal % inhibition of viability [8, 19]: 64.7 ± 1.1%
- maximal % inhibition of viability [8, 20]: 61.33 ± 0.42%
- maximal % inhibition of viability [8, 21]: 55.5 ± 0.36%
- maximal % inhibition of viability [9, 17]: 91.7 ± 5%
- maximal % inhibition of viability [9, 18]: 92 ± 2%
- maximal % inhibition of viability [9, 19]: 86.8 ± 0.91%
- maximal % inhibition of viability [9, 20]: 75.6 ± 0.97%
- maximal % inhibition of viability [9, 21]: 79.1 ± 2.9%
- maximal % inhibition of viability [10, 17]: 89.7 ± 3.3%
- maximal % inhibition of viability [10, 18]: 80 ± 4.9%
- maximal % inhibition of viability [10, 19]: 82.1 ± 1.4%
- maximal % inhibition of viability [10, 20]: 77.3 ± 1.9%
- maximal % inhibition of viability [10, 21]: 78.8 ± 3.2%
- maximal % inhibition of viability [11, 17]: 93.17 ± 0.71%
- maximal % inhibition of viability [11, 18]: 93.9 ± 1.8%
- maximal % inhibition of viability [11, 19]: 91.5 ± 0.2%
- maximal % inhibition of viability [11, 20]: 91.1 ± 2.1%
- maximal % inhibition of viability [11, 21]: 90.4 ± 1.4%
- maximal % inhibition of viability [12, 17]: 84.6 ± 1.5%
- maximal % inhibition of viability [12, 18]: 78.8 ± 4.7%
- maximal % inhibition of viability [12, 19]: 83.3 ± 2.9%
- maximal % inhibition of viability [12, 20]: 80.27 ± 0.76%
- maximal % inhibition of viability [12, 21]: 79.8 ± 1.5%
- maximal % inhibition of viability [13, 17]: 53.1 ± 13%
- maximal % inhibition of viability [13, 18]: 35.2 ± 3%
- maximal % inhibition of viability [13, 19]: 52.9 ± 3.1%
- maximal % inhibition of viability [13, 20]: 41.1 ± 1.3%
- maximal % inhibition of viability [13, 21]: 57.3 ± 2.8%
- maximal % inhibition of viability [14, 17]: 73.1 ± 6.3%
- maximal % inhibition of viability [14, 18]: 60.2 ± 7.8%
- maximal % inhibition of viability [14, 19]: 70.8 ± 8.7%
- maximal % inhibition of viability [14, 20]: 66.2 ± 9%
- maximal % inhibition of viability [14, 21]: 64.4 ± 6.4%
- maximal % inhibition of viability [15, 17]: 35 ± 13%
- maximal % inhibition of viability [15, 18]: 57.3 ± 1.4%
- maximal % inhibition of viability [15, 19]: 43.7 ± 4.2%
- maximal % inhibition of viability [15, 21]: 34.8 ± 4.6%
- maximal % inhibition of viability [16, 17]: 85 ± 3.7%
- maximal % inhibition of viability [16, 19]: 76.5 ± 1.4%
- maximal % inhibition of viability [16, 20]: 76.5 ± 1.6%
- maximal % inhibition of viability [16, 21]: 74.1 ± 2.6%

Structure (SMILES): Cn1cnc2c(F)c(Nc3ccc(Br)cc3F)c(C(=O)NOCCO)cc21 [Binimetinib]
- drug sensitivity score [1, 17]: 24.4 ± 3.8 DSS
- drug sensitivity score [1, 18]: 9.83 ± 4.3 DSS
- drug sensitivity score [1, 19]: 19.9 ± 0.72 DSS
- drug sensitivity score [1, 20]: 6.9 ± 0.85 DSS
- drug sensitivity score [1, 21]: 18.1 ± 0.64 DSS
- relative IC50 [2, 17]: 16.5 nM
- relative IC50 [2, 19]: 39.4 nM
- relative IC50 [2, 20]: 54 nM
- relative IC50 [2, 21]: 51.7 nM
- relative IC50 [3, 17]: 9.22 nM
- relative IC50 [3, 18]: 175 nM
- relative IC50 [3, 19]: 53.2 nM
- relative IC50 [3, 20]: 14.9 nM
- relative IC50 [3, 21]: 74.4 nM
- relative IC50 [4, 17]: 115 nM
- relative IC50 [4, 19]: 101 nM
- relative IC50 [4, 21]: 69 nM
- relative IC50 [5, 18]: > 989 nM
- relative IC50 [5, 19]: 26.5 nM
- maximal % inhibition of viability [6, 17]: 70.1 ± 4.2%
- maximal % inhibition of viability [6, 18]: 31.5 ± 8.1%
- maximal % inhibition of viability [6, 19]: 52.9 ± 11%
- maximal % inhibition of viability [6, 20]: 34 ± 5.1%
- maximal % inhibition of viability [6, 21]: 45 ± 6.7%
- maximal % inhibition of viability [7, 17]: 40.9 ± 26%
- maximal % inhibition of viability [7, 18]: 19.8 ± 23%
- maximal % inhibition of viability [7, 19]: 28.9 ± 14%
- maximal % inhibition of viability [7, 20]: 29 ± 15%
- maximal % inhibition of viability [7, 21]: 31 ± 25%
- maximal % inhibition of viability [8, 17]: 48.9 ± 1.6%
- maximal % inhibition of viability [8, 18]: 24.5 ± 4.6%
- maximal % inhibition of viability [8, 19]: 52.2 ± 5.8%
- maximal % inhibition of viability [8, 20]: 28.6 ± 5.7%
- maximal % inhibition of viability [8, 21]: 46.3 ± 2.8%
- maximal % inhibition of viability [9, 17]: 77.3 ± 2.2%
- maximal % inhibition of viability [9, 18]: 58.1 ± 13%
- maximal % inhibition of viability [9, 19]: 72.4 ± 2%
- maximal % inhibition of viability [9, 20]: 44.7 ± 8.7%
- maximal % inhibition of viability [9, 21]: 52.8 ± 6%
- maximal % inhibition of viability [10, 17]: 85.5 ± 1%
- maximal % inhibition of viability [10, 18]: 18.7 ± 4.7%
- maximal % inhibition of viability [10, 19]: 76.3 ± 3.8%
- maximal % inhibition of viability [10, 20]: 23.5 ± 3.9%
- maximal % inhibition of viability [10, 21]: 38.7 ± 2.1%
- maximal % inhibition of viability [11, 17]: 60.3 ± 0.64%
- maximal % inhibition of viability [11, 18]: 49.6 ± 11%
- maximal % inhibition of viability [11, 19]: 50.7 ± 2.5%
- maximal % inhibition of viability [11, 20]: 28.6 ± 5.1%
- maximal % inhibition of viability [11, 21]: 69.4 ± 4.1%
- maximal % inhibition of viability [12, 17]: 80.5 ± 1.5%
- maximal % inhibition of viability [12, 18]: 53.5 ± 17%
- maximal % inhibition of viability [12, 19]: 76.8 ± 1.7%
- maximal % inhibition of viability [12, 20]: 60.7 ± 0.93%
- maximal % inhibition of viability [12, 21]: 66.9 ± 4.2%
- maximal % inhibition of viability [13, 17]: 48.3 ± 3.9%
- maximal % inhibition of viability [13, 18]: 16.4 ± 2.9%
- maximal % inhibition of viability [13, 19]: 60.1 ± 2.9%
- maximal % inhibition of viability [13, 20]: 20.6 ± 2.3%
- maximal % inhibition of viability [13, 21]: 62.2 ± 1.8%
- maximal % inhibition of viability [14, 17]: 29.8 ± 10%
- maximal % inhibition of viability [14, 18]: 33.8 ± 15%
- maximal % inhibition of viability [14, 19]: 33.3 ± 9.7%
- maximal % inhibition of viability [14, 20]: 32.4 ± 24%
- maximal % inhibition of viability [14, 21]: 25.9 ± 25%
- maximal % inhibition of viability [15, 17]: 38.5 ± 2.6%
- maximal % inhibition of viability [15, 18]: 12.5 ± 11%
- maximal % inhibition of viability [15, 19]: 31.2 ± 2.9%
- maximal % inhibition of viability [15, 21]: 21.9 ± 6.2%
- maximal % inhibition of viability [16, 17]: 66.2 ± 7.5%
- maximal % inhibition of viability [16, 19]: 48.5 ± 15%
- maximal % inhibition of viability [16, 20]: 24.8 ± 7%
- maximal % inhibition of viability [16, 21]: 31.3 ± 8.6%
